Experimental data as given in US20240246942A1, “KINASE INHIBITORS FOR THE TREATMENT OF NEURODEGENERATIVE DISEASES” (priority 2020, published 2024).

What was measured:
Assay in all cases: biochemical
[1] = biological target: T1, panel of 374 wild-type kinases (Homo sapiens, UniProt P17252); conditions: read-out: % Enzyme Activity (relative to DMSO controls), kinase PKCa
T1 construct: purchased Reaction Biology Corporation

[2] = biological target: T2, panel of 374 wild-type kinases (Homo sapiens, UniProt P43405); conditions: read-out: % Enzyme Activity (relative to DMSO controls), kinase SYK
T2 construct: purchased Reaction Biology Corporation

[3] = biological target: T3, panel of 374 wild-type kinases (Homo sapiens, UniProt O95382); conditions: read-out: % Enzyme Activity (relative to DMSO controls), MEKK6
T3 construct: purchased Reaction Biology Corporation
T3 sequence (O95382 1-1288): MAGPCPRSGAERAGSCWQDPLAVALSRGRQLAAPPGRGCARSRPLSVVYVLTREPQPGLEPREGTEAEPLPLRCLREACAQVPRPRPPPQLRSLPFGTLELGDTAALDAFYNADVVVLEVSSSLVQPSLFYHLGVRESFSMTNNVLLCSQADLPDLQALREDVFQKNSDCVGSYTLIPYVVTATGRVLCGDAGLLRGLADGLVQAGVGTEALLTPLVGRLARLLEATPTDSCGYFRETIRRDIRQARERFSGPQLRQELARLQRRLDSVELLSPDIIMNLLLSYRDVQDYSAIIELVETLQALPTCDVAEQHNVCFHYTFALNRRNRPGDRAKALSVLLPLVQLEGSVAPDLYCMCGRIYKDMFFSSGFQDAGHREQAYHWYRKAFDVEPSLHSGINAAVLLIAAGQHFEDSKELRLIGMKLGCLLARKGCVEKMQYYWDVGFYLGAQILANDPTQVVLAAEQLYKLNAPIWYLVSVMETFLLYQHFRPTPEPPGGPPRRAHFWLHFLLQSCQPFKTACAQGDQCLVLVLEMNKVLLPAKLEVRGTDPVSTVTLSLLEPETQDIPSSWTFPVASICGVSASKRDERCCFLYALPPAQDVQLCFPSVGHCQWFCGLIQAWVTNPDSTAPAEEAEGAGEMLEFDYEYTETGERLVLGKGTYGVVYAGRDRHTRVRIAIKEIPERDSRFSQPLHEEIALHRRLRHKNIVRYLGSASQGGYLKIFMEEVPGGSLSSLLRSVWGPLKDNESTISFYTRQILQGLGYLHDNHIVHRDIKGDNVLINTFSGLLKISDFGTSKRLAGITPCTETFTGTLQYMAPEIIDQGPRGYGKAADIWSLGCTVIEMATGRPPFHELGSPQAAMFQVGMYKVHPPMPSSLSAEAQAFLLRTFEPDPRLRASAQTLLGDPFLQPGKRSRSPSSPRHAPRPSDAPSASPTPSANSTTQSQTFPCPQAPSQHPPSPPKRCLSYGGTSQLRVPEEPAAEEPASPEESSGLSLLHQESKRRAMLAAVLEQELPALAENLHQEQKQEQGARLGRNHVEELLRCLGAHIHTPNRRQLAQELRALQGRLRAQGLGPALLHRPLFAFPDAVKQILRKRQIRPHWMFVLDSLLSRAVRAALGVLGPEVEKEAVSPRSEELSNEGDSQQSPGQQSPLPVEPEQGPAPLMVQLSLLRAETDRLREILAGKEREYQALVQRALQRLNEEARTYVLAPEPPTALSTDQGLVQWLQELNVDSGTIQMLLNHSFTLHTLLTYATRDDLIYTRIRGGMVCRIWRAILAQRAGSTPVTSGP

[4] = biological target: T4, panel of 374 wild-type kinases (Homo sapiens, UniProt Q96PN8); conditions: read-out: % Enzyme Activity (relative to DMSO controls), kinase TSSK3/STK22C
T4 construct: purchased Reaction Biology Corporation
T4 sequence (Q96PN8 1-268): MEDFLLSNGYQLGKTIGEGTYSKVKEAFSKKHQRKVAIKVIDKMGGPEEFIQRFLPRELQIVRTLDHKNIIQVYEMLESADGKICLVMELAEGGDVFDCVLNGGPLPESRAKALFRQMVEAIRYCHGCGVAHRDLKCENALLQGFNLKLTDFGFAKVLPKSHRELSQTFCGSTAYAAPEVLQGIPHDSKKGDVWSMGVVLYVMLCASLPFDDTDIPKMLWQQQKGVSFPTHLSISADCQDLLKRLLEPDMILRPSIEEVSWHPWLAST

[5] = biological target: T5, panel of 374 wild-type kinases (Homo sapiens, UniProt O95835); conditions: read-out: % Enzyme Activity (relative to DMSO controls), LATS1
T5 construct: purchased Reaction Biology Corporation
T5 sequence (O95835 1-1130): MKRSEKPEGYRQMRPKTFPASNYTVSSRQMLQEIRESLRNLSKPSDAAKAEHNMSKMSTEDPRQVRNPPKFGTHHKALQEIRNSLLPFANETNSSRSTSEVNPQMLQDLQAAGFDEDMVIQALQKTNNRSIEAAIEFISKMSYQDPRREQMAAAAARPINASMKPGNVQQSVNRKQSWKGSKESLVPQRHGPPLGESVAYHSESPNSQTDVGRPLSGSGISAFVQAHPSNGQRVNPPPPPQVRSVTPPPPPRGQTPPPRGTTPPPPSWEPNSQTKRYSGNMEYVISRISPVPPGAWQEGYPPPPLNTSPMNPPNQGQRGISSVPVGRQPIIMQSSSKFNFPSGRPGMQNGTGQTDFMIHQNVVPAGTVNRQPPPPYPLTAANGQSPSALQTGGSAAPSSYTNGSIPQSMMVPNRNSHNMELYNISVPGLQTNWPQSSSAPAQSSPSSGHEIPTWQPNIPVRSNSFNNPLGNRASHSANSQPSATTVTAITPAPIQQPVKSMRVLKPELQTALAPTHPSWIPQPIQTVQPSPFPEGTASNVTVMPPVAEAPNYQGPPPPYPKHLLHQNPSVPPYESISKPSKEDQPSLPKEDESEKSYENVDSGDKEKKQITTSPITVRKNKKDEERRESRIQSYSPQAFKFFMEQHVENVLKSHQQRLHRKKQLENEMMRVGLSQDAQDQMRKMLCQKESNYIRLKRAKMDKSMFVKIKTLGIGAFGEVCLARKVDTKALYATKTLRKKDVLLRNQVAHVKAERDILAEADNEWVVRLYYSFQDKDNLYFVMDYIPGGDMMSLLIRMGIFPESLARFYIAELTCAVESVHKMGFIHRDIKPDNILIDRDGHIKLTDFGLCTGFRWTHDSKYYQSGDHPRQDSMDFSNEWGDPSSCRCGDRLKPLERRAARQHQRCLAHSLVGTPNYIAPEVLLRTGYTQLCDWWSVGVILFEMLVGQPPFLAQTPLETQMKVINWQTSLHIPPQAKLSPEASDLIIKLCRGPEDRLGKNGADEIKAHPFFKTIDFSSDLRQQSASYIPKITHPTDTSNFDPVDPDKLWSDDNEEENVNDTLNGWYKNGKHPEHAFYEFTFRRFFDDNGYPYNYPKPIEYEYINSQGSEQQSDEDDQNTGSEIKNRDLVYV

Row | Structure (SMILES) | remaining activity at 5 µM [1] [%] | remaining activity at 5 µM [2] [%] | remaining activity at 5 µM [3] [%] | remaining activity at 5 µM [4] [%] | remaining activity at 5 µM [5] [%] | remaining activity at 10 µM ([1]; 10 uM) [%] | remaining activity at 10 µM ([2]; 10 uM) [%] | remaining activity at 10 µM ([3]; 10 uM) [%] | remaining activity at 10 µM ([4]; 10 uM) [%] | remaining activity at 10 µM ([5]; 10 uM) [%]
1 | O=C(Nc1cnn(-c2csc(C(=O)NC3COC3)c2)c1)Nc1c(F)cccc1Cl [Compound 25, 4-(4-(3-(2-chloro-6-fluorophenyl)ureido)-1H-pyrazol-1-yl)-N-(oxetan-3-yl)thiophene-2-carboxamide] | 90.7 | 90.3 | 92.5 | 101 | 93.5 |  |  |  |  | 
2 | O=C(Nc1cnn(-c2csc(C(=O)NC3COC3)c2)c1)Nc1ccccc1Cl [Compound 17, 4-(4-(3-(2-chlorophenyl)ureido)-1H-pyrazol-1-yl)-N-(oxetan-3-yl)thiophene-2-carboxamide] | 101 | 104 | 98.8 | 97.7 | 106 |  |  |  |  | 
3 | Cc1sc(C(=O)NC2COC2)cc1-n1cc(NC(=O)Nc2c(F)cccc2Cl)cn1 [Compound 27, 4-(4-(3-(2-chloro-6-fluorophenyl)ureido)-1H-pyrazol-1-yl)-5-methyl-N-(oxetan-3-yl)thiophene-2-carboxamide] |  |  |  |  |  | 95.9 | 88.5 | 79.3 | 100 | 97.2
